Test results taken from patent US11952364B2, “TRK inhibitors useful as anticancer drugs” (TYLIGAND BIOSCIENCE (SHANGHAI) LIMITED, priority 2018, dated 2024).

Each molecule was assayed on Ba/F3 ETV6-NTRK2 cells (assay: Proliferation of Ba/F3 ETV6-NTRK2 cells (CellTiter-Glo)). Details: Mus musculus, BaF3; Table 2; 72 hours.
Format: cell-based
Description: Ba/F3 ETV6-NTRK2 cell is a stable transgenic cell line constructed by KYinno Biotechnology Co., Ltd. on mouse primary B cell Ba/F3 wherein NTRK2 is highly expressed and fused with ETV6 to form ETV6-NTRK2. • [Test method]: Promega's CellTiter-Glo® Luminescent Cell Viability Assay kit was used to evaluate the inhibitory activity of the compounds on the proliferation of Ba/F3 ETV6-NTRK2C cells. • [Instrument]: Spectramax M3 multifunctional microplate reader from Molecular Devices. • [Test materials]: Ba/F3 ETV6-NTRK2 cell line (constructed by KYinno Biotechnology Co., Ltd. (Beijing)), 96-well transparent flat-bottomed black-walled cell culture plate (Corning, cat #3603), RPMI-1640 media (GE, cat #SH30027.01), fetal bovine serum FBS (Thermo Fisher, cat #10099-141), CellTiter-Glo® Luminescent Cell Viability Assay kit (Promega, cat #G7572), PBS (Solarbio, cat #P1020), DMSO (Sigma, cat #D2650). • [Experimental procedure]: When resuscitating Ba/F3 ETV6-NTRK2 cells, the freezing tube was quickly shaken in a 37° C. water bath to melt within 1 minute. The thawed cell suspension was mixed uniformly with RPMI1640 medium containing 10% FBS, centrifuged at 1000 rpm for 5 minutes, and the supernatant discarded. 5 mL of complete medium (RPMI1640 medium with 10% FBS) was taken to resuspend the cell pellets, charged into a cell culture flask with a bottom area of 25 cm^2, and incubated in a cell incubator at 37° C., 95% humidity and 5% CO2. Cells were allowed to passage when the number of cells reached about 10^6 cells/mL. For cell passage, the old cell suspension was directly pipetted evenly, 1/5 of the cell suspension was kept, 4 mL of new complete medium was added, and after pipetting evenly, the cell flask was placed in the cell incubator for further culturing. Cell plating was performed when the number of cells reached about 10^6 cells/mL again. For cell plating, 1/5 of the cell suspension was kept for further culturing as in the cell passage method, and the remaining 4/5 of the cell suspension was placed in a 15 mL centrifuge tube, detected for cell viability by Trypan blue exclusion method to ensure that cell viability was above 90%. A cell suspension with a density of 5.56×10^4 viable cells/mL was prepared with complete medium, and 90 μL of such cell suspension was added to a 96-well cell culture plate to obtain a cell density of 5000 viable cells/mL in the cell culture plate. A control group containing no cells, no compound and only complete medium (i.e, culture medium control) and a control group containing no compound but containing cells (i.e, cell control) were set. The cell plate was placed in a cell incubator overnight. The 10 mM compound stock solution in DMSO was first serially diluted with DMSO at a dilution factor of 3.16 times, to obtain 9 concentrations, and the 10th concentration was set as DMSO control without compound. Then, PBS was used to dilute the DMSO solutions of compounds of different concentrations, at a dilution factor of 100 times, so that the DMSO concentration in the compound solution of each concentration was 1%. Finally, 10 μL of each of the above solutions was added to the corresponding cell culture plate, so that the initial compound concentration was 10 μM, with the remaining concentrations being successively diluted at a dilution factor of 3.16 times, and the DMSO content in the cell culture plate was 0.1%. The cell plate was placed in a cell incubator and cultured for 72 hours. For endpoint detection, the CellTiter-Glo reagent was melted, and the cell plate was moved to room temperature to equilibrate for 30 minutes, added with 100 μL of CellTiter-Glo for each well, and shaken on an orbital shaker for 5 minutes to fully lyse the cells. The plate was kept at room temperature for 20 minutes to stabilize the luminescence signal, and the luminescence value of each well was scanned with a multi-functional microplate reader at full wavelength. • [Test sample]

| SMILES | IC50 |
| --- | --- |
| Cn1ncc2cc(Oc3ccc(NC(=O)c4ccc(C5CC5)n(-c5ccc(F)cc5)c4=O)cc3F)c(-c3cn[nH]c3)cc21 [Example 2, N-(3-fluoro-4-(1-methyl-6-(1H-pyrazol-4-yl)-1H-indazol-5-yloxy)phenyl)-1-(4-fluorophenyl)-6-cyclopropyl-2-oxo-1,2-dihydmpyridine-3-carboxamide] | 0.269 µM |
| Cc1ccc(C(=O)Nc2ccc(Oc3cc4cnn(C(C)C)c4cc3-c3cn[nH]c3)c(F)c2)c(=O)n1-c1ccc(F)cc1 [Example 4, N-(3-fluoro-4-(1-isopropyl-6-(1H-pyrazol-4-yl)-1H-indazol-5-yloxy)phenyl)-1-(4-fluorophenyl)-6-methyl-2-oxo-1,2-dihydmpyridine-3-carboxamide] | 0.876 µM |
| CCn1ncc2cc(Oc3ccc(NC(=O)c4ccc(C)n(-c5ccc(F)cc5)c4=O)cc3F)c(-c3cn[nH]c3)cc21 [Example 3, N-(3-fluoro-4-(1-ethyl-6-(1H-pyrazol-4-yl)-1H-indazol-5-yloxy)phenyl)-1-(4-fluorophenyl)-6-methyl-2-oxo-1,2-dihydmpyridine-3-carboxamide] | 0.341 µM |
| Cn1ncc2cc(Oc3ccc(NC(=O)c4ccc(C(F)(F)F)n(-c5ccc(F)cc5)c4=O)cc3F)c(-c3cn[nH]c3)cc21 [Example 1, N-(3-fluoro-4-(1-methyl-6-(1H-pyrazol-4-yl)-1H-indazol-5-yloxy)phenyl)-1-(4-fluorophenyl)-6-trifluoromethyl-2-oxo-1,2-dihydmpyridine-3-carboxamide monomethanesulfonate] | 0.428 µM |
| CC(C)c1ccc(C(=O)Nc2ccc(Oc3cc4cnn(C)c4cc3-c3cn[nH]c3)c(F)c2)c(=O)n1-c1ccc(F)cc1 [Example 6, N-(3-fluoro-4-(1-methyl-6-(1H-pyrazol-4-yl)-1H-indazol-5-yloxy)phenyl)-1-(4-fluorophenyl)-6-isopropyl-2-oxo-1,2-dihydropyridine-3-carboxamide] | 0.209 µM |
| CCc1ccc(C(=O)Nc2ccc(Oc3cc4cnn(C)c4cc3-c3cn[nH]c3)c(F)c2)c(=O)n1-c1ccc(F)cc1 [Example 5, N-(3-fluoro-4-(1-methyl-6-(1H-pyrazol-4-yl)-1H-indazol-5-yloxy)phenyl)-1-(4-fluorophenyl)-6-ethyl-2-oxo-1,2-dihydropyridine-3-carboxamide] | 0.128 µM |

Second part, the molecule after the results:

| IC50 | SMILES |
| --- | --- |
| 0.211 µM | Cc1ccc(C(=O)Nc2ccc(Oc3cc4cnn(C)c4cc3-c3cn[nH]c3)c(F)c2)c(=O)n1-c1ccc(F)cc1 [Merestinib, reference compound] |
| 0.069 µM | O=C(Nc1cnn2ccc(N3CCC[C@@H]3c3cc(F)ccc3F)nc12)N1CC[C@H](O)C1 [LOXO-101, Larotrectinib, reference compound] |

The molecules below were run on MKN45 cells (assay: Proliferation of MKN45 cells). Details: Homo sapiens, MKN-45; Table 8.
Format: cell-based
Method: MKN45 is a human poorly differentiated gastric cancer cell line with high MET expression. Cell proliferation experiments were performed according to literature methods (Zhang, D. et al. Bioorg. Med. Chem. 2013, 21, 6804; Riss, T. L.; Moravec, R. A.; Niles, A. L.; et al. Cell Viability Assays 2013 May 1 [Updated 2016 Jul. 1]. In: Sittampalam, G. S.; Grossman, A.; Brimacombe, K.; et al., editors. Assay Guidance Manual [Internet]. Bethesda (MD): Eli Lilly & Company and the National Center for Advancing Translational Sciences; 2004-. Available from: https://www.ncbi.nlm.nih.gov/books/NBK144065/).

| IC50 | SMILES |
| --- | --- |
| 0.004 µM | COc1ccc(C(=O)Nc2ccc(Oc3cc4cnn(C)c4cc3-c3cn[nH]c3)c(F)c2)c(=O)n1-c1ccc(F)cc1 [Example 12, N-(3-fluoro-4-(1-methyl-6-(1H-pyrazol-4-yl)-1H-indazol-5-yloxy)phenyl)-1-(4-fluorophenyl)-6-methoxy-2-oxo-1,2-dihydropyridine-3-carboxamide] |
| 0.012 µM | CSc1ccc(C(=O)Nc2ccc(Oc3cc4cnn(C)c4cc3-c3cn[nH]c3)c(F)c2)c(=O)n1-c1ccc(F)cc1 [Example 11, N-(3-fluoro-4-(1-methyl-6-(1H-pyrazol-4-yl)-1H-indazol-5-yloxy)phenyl)-1-(4-fluorophenyl)-6-methylthio-2-oxo-1,2-dihydropyidine-3-carboxamide] |
| 0.019 µM | Cc1ccc(C(=O)Nc2ccc(Oc3cc4cnn(C)c4cc3-c3cn[nH]c3)c(F)c2)c(=O)n1-c1ccc(F)cc1 [Merestinib, reference compound] |
| 0.009 µM | CC(C)Oc1ccc(C(=O)Nc2ccc(Oc3cc4cnn(C)c4cc3-c3cn[nH]c3)c(F)c2)c(=O)n1-c1ccc(F)cc1 [Example 16, N-(3-fluoro-4-(1-methyl-6-(1H-pyrazol-4-yl)-1H-indazol-5-yloxy)phenyl)-1-(4-fluorophenyl)-6-isopropoxy-2-oxo-1,2-dihydropyridine-3-carboxamide] |
| 0.011 µM | CCOc1ccc(C(=O)Nc2ccc(Oc3cc4cnn(C)c4cc3-c3cn[nH]c3)c(F)c2)c(=O)n1-c1ccc(F)cc1 [Example 14, N-(3-fluoro-4-(1-methyl-6-(1H-pyrazol-4-yl)-1H-indazol-5-yloxy)phenyl)-1-(4-fluorophenyl)-6-ethoxy-2-oxo-12-dihydropyridine-3-carboxamide] |
| > 10 µM | O=C(Nc1cnn2ccc(N3CCC[C@@H]3c3cc(F)ccc3F)nc12)N1CC[C@H](O)C1 [LOXO-101, Larotrectinib, reference compound] |
